Like-named read-outs stand apart in the source and are kept apart here.
Tests used:
A549 lung cancer cells = details: for tumor weight lower (minus % compared to DMSO-treated control): after 7 weeks; for BrdU+ cells/field in tumor tissue: control about 6.3; for TUNEL+ cells/field in tumor tissue: control about 15.5; for tumor size versus control group: 6S 30 mg/kg, M2 30 mg/kg, M14 10 mg/kg, oral gavage 5×/week
Protocol: Nu/J nude mice were obtained from Jackson Laboratories (Bar Harbor, Me.). Animals were randomized into 4 groups. A549 cells (5×10^6 cells) were implanted in both flanks of 8-weeks old Nu/J mice. One week after implantation, animals were given 100 μl of the following treatments through oral gavage 5 times/week: DMSO 0.25 ml/kg (control; n=4); 6S 10 mg/kg (n=4); 6S 30 mg/kg (n=4) or M2 30 mg/kg (n=5). Compounds were diluted in a solution of 5% DMSO in corn oil. Animal body weight and tumor volume were recorded for the duration of the experiment. Tumor volume was calculated by measuring the length and width of the tumors using a digital caliper and using the formula (Length×Width^2)/2. One hour before sacrifice, mice were given one last treatment dose as well as one intra-peritoneal injection of BrdU (7.5 mg/kg in 100 μl PBS). After 7 weeks, tumor tissues were harvested and weighed. A portion of the tumors was snap frozen in liquid nitrogen and another portion was placed in a histology cassette and immersed in formalin solution.
[…] tissues were sent to Precision Histology Lab (Oklahoma City, Okla.) for embedding in paraffin blocks. Then paraffin blocks were processed into 3-4 μm sections that were then put on microscope slides. Sections were then deparaffinized by using a succession of 3 baths of xylene (5 minutes each), 2 baths of absolute ethanol (5 minutes each), 95% ethanol for 3 minutes, 70% ethanol for 3 minutes, and rinsed in PBS. Immunostaining with TUNEL (terminal deoxynucleotidyl transferase dUTP nick end labeling) and BrdU staining kits was performed following manufacturer's recommendation. For staining quantification, sequential high-power field pictures of tumors were taken (10 pictures per tumor) using an A1 Zeiss microscope (Oberkochen, Germany). Images were processed using the Image J software, which was used to count positive, brown-colored cells in each field. Average number per tumor was calculated by averaging the number obtained for each field, and the average number of positive cells per group was obtained by averaging the values of each tumor belonging to the experimental group.
8 week-old nude mice (Jackson Laboratory, Maine) were randomized into 5 groups based on treatment (DMSO: n=4; 6S 10 mg/kg: n=4 (“6S 10”); 6S 30 mg/kg: n=4 (“6S 30”); M2 30 mg/kg: n=5 (“M2 30”); M14 10 mg/kg: n=4 (“M14 10”)). Animals were implanted with 5×10^6 A549 lung cancer cells (adenocarcinomic human alveolar basal epithelial cells) on each flank. The mice had access to food and water ad libitum. One week post implantation, the animals started receiving their respecting treatments through oral gavage (100 μl in corn oil and 5% DMSO), 5×/week. After 7 weeks of treatment, the tumor tissues were harvested.

HCT-116 cells = assay: TUNEL apoptosis assay (Part 2); type: cell-based, human; details: HCT-116, 20 or 40 μM
Protocol: HCT-116 and H1299 cells were seeded in 6-well plates at 1×10^5 cells/well and incubated at 37° C. in 5% CO2 incubator. After 24 hours, fresh media supplemented with DMSO (control), [6]-shogaol, M2, M6, or M13 metabolites (20 μM or 40 μM) were added to the wells. After 6 or 24 hours incubation at 37° C. in 5% CO2 incubator, cells were washed and pre-treated for 15 min at room temperature with a solution of 20 μg/ml proteinase K. Cells were then washed twice with phosphate buffer saline pH 7.4 (PBS) and fixed for 10 min at room temperature using 10% neutral formaldehyde solution. After 2 washes in ddH2O, cells were resuspended in 100 μL ddH2O and applied on silanized microscope slides. Slides were incubated overnight at 37° C., and washed twice with PBS. TUNEL assay was then carried out according to the manufacturer's protocol. Cells were observed under 400× power using a Zeiss microscope A1 (Thornwood, N.Y.). 10 fields per slide were evaluated, and TUNEL+ cells (with brown coloration in the nucleus) were expressed as a percentage of the total number of cells contained in a field.

[1] = tested on: human lung cancer cells H-1299; assay: MTT growth inhibition of human cancer and normal cells (Part 2); type: cell-based; details: H-1299, 48 h, 0 to 80 μM
Protocol: (§1) Growth inhibition of human cancer and normal cells. Cell growth inhibition was determined by a MTT colorimetric assay. Human colon cancer cells HCT-116, human lung cancer cells H-1299, human colon fibroblast cells CCD-18Co, and human lung fibroblast cells IMR-90 were plated in 96-well microtiter plates with 3000 cells/well and allowed to attach for 24 h at 37° C. […] After the cells were cultured for 48 h, the medium was aspirated and cells were treated with 200 μL fresh medium containing 2.41 mmol/L MTT. […] The reading reflected the number of viable cells and was expressed as a percentage of viable cells in the control. Both HCT-116 and H-1299 cells were cultured in McCoy's 5A medium. CCD-18Co and IMR-90 cells were cultured in Eagle's modified essential medium (EMEM). All of the above media were supplemented with 10% fetal bovine serum, 1% penicillin/streptomycin, and 1% glutamine, and the cells were kept in a 37° C. incubator with 95% humidity and 5% CO2.

[2] = tested on: human colon cancer cells HCT-116; assay: as above; type: cell-based; details: HCT-116, 48 h, 0 to 80 μM
Protocol: as §1

A549 cells = assay: Cell Death Detection ELISA apoptosis (Part 4); type: cell-based, human; details: A549, 20 μM, 24 hours; for enrichment factor (small nucleosomes, ELISA): with pft
Protocol: The Cell Death Detection ELISA (Enzyme-linked immunoabsorbant assay) Plus kit from Roche (Mannheim, Germany) was used. […] After 24 hours, the microplate was centrifuged for 10 minutes at 1200 rpm, and the supernatant was removed. 200 μl of the lysis buffer was added in each well and incubated for 30 minutes at room temperature. The plate was then centrifuged for 10 minutes at 1200 rpm and 20 μl of the supernatant was transferred to streptavidin-coated micro-wells. ELISA assay was performed according to manufacturer's instruction. Absorbance in each well was measured at 405 nm in absorbance units (AU), and the enrichment factor (EF) in small nucleosomes was calculated with the formula EF=AU treated/AU DMSO.

[3] = tested on: human lung fibroblast cells IMR-90; assay: in vitro; type: cell-based
Protocol: as §1

[4] = M2 30 mg/kg vs 6S 30 mg/kg, 7 weeks

| SMILES | tumor weight lower (minus % compared to DMSO-treated control) (A549 lung cancer cells; 10 mg/kg oral gavage 5×/week, not significant) | BrdU+ cells/field in tumor tissue (A549 lung cancer cells; 10 mg/kg) | TUNEL+ cells/field in tumor tissue (A549 lung cancer cells; 10 mg/kg) | tumor weight lower (minus % compared to DMSO-treated control) (A549 lung cancer cells; 30 mg/kg oral gavage 5×/week) | BrdU+ cells/field in tumor tissue (A549 lung cancer cells; 30 mg/kg) | TUNEL+ cells/field in tumor tissue (A549 lung cancer cells; 30 mg/kg) | tumor size versus control group (A549 lung cancer cells; 7 weeks) | induction of apoptosis (TUNEL) versus DMSO (HCT-116 cells; 6 hours) | IC50 [1] | IC50 [2] | enrichment factor (small nucleosomes, ELISA) (A549 cells) | enrichment factor (cytoplasmic histone-associated DNA fragments, ELISA) (A549 cells; without pft) | IC50 [3] | decrease of tumor burden relative to the equivalent 6S group (A549 lung cancer cells; [4]) | lower tumor burden than the equivalent 6S group compared to DMSO (A549 lung cancer cells; [4]) | changes in body weight between groups (A549 lung cancer cells; oral gavage up to 7 weeks) | induction of apoptosis (TUNEL) versus DMSO (HCT-116 cells; 24 hours) |
| --- | --- | --- | --- | --- | --- | --- | --- | --- | --- | --- | --- | --- | --- | --- | --- | --- | --- |
| CCCCC/C=C/C(=O)CCc1ccc(O)c(OC)c1 [[6]-shogaol, reference compound] | 25.6% | 4.7 BrdU+ cells/field | 27.8 TUNEL+ cells/field | 40.8% | 3.4 BrdU+ cells/field | 32.6 TUNEL+ cells/field | Reduction in tumor size | higher levels of apoptosis | 17.9 µM | 18.2 µM | about 1 | 2.2 | 36.6 µM |  |  |  |  |
| CCCCCC(CC(=O)CCc1ccc(O)c(OC)c1)SC[C@H](N)C(=O)O (some centres unmarked) [M2, 5-cysteinyl-[6]-shogaol] |  |  |  | 53.7% | 5.7 BrdU+ cells/field | 28.6 TUNEL+ cells/field | Reduction in tumor size | higher levels of apoptosis | 25.8 µM | 24.4 µM | 2 |  | 98.3 µM | 21.8% | 12.9% | did not induce any significant changes in body weight | Apoptosis was observed |

Source: patent US9549911B2, “Ginger metabolites and uses thereof” (North Carolina A&T State University, priority 2012, dated 2017)
